Patent US20060241163A1, “Optically active (S)-hydantoin derivative” (priority 2005, published 2006)

Assays:
mice = assay: Minimum doses for expression of general symptoms after single oral administration; type: in vivo
SD-strain rats = assay: Acute toxicity test, single intravenous administration; type: in vivo; details: once administered intravenously, SD-strain rats 6 weeks age
Procedure: In an acute toxicity test where (±)-5-hydroxy-1-methylhydantoin was once administered intravenously to SD-strain rats (6 weeks age), there was no dead case even when the dose was 2,000 mg/kg, and so the lethal dose of the unchanged compound was presumed to be not less than 2,000 mg/kg. In the same toxicity test however, a lethal dose of the metabolite 1 was about 150 to 300 mg/kg. […] Furthermore, it was observed that the racemate caused the decrease of general symptoms such as passivity, tactile reaction, pain sensation reaction and ipsilateral flexor reaction at a dose of 200 mg/kg.

[1] = test system: rat in which renal insufficiency was induced by adenine; assay: Suppression of creatinine increase in adenine-induced renal insufficiency model rats; type: in vivo, Wistar-strain male rats
From the text: Adenine was orally administered to Wistar-strain male rats of eight weeks age to prepare a renal insufficiency model. […] Further, a value of creatinine clearance (mL/kg/hr) decreased from 315.3±13.8 to 25.7±4.4 whereupon renal functions lowered to about one-tenth.
From the 7th to the 17th days from administration of adenine, the test drug was orally administered to the rat in which renal insufficiency was induced by adenine. The creatinine levels in blood before and after the administration of the test drug were compared whereupon a suppressive action of the test drug to an increase of creatinine accompanied by the progress of renal insufficiency was checked. In a control group where no test drug was administered, an increase of creatinine to an extent of 4.37±0.76 mg/dL was noted while, in a group to which (S)-(−)-5-hydroxy-1-methylhydantoin (200 mg/kg/day) was administered, an increase of creatinine was suppressed to an extent of 2.72±0.55 mg/dL.

[2] = Pharmacokinetics in blood (unchanged compound and metabolites in plasma) in renal insufficiency model rats; type: in vivo; details: 100 mg/kg oral once, 23rd day from administration of adenine; compared with R-form and racemate; FIG. 1 and FIG. 2
Procedure: After each 100 mg/kg of (S)-(−)-5-hydroxy-1-methylhydantoin, (R)-(+)-5-hydroxy-1-methylhydantoin, and racemate thereof was orally administered once to the above-mentioned model rats of renal insufficiency (on the 23rd day from administration of adenine), changes in concentration of an unchanged compound and metabolites (metabolite 1: 1-methylimidazolidintrion and metabolite 2: 5-methyloxaluric acid) in plasma were checked.

CN1C(=O)NC(=O)C1O (racemic) [racemate, (±)-5-hydroxy-1-methylhydantoin, reference compound]
dose causing decrease of general symptoms (passivity, tactile reaction, pain sensation reaction, ipsilateral flexor reaction) (mice; general symptoms observation, single oral administration to mice): 200 mg/kg | lethal dose (SD-strain rats): not less than 2,000 mg/kg

CN1C(=O)NC(=O)[C@H]1O [R-form, (R)-(+)-5-hydroxy-1-methylhydantoin]
dose for expression of general symptoms as compared with the S-form (mice; mouse, in vivo, po): one-fifth

CN1C(=O)NC(=O)[C@@H]1O [S-form, (S)-(−)-5-hydroxy-1-methylhydantoin]
increase of creatinine in blood ([1]; 200 mg/kg/day oral, 7th to 17th days from administration of adenine, control group 4.37±0.76 mg/dL): 2.72 ± 0.55 mg/dL | suppressive action to renal insufficiency ([1]; adenine renal insufficiency rats, oral, compared with racemate): suppressive action to renal insufficiency the same as the racemate | dose causing decrease of general symptoms (passivity, tactile reaction, pain sensation reaction, ipsilateral flexor reaction) (mice; mouse, in vivo, po): 500 mg/kg | conversion to metabolites (metabolite 1 and metabolite 2) in plasma [2]: rarely converted to its metabolites

CN1C(=O)NC(=O)C1=O [metabolite 1, 1-methylimidazolidintrion]
lethal dose (SD-strain rats): 150 to 300 mg/kg
